Experimental data as given in US11311624B2, “Inhibitors of MEK/PI3K, JAK/MEK, JAK/PI3K/mTOR and MEK/PI3K/mTOR biological pathways and methods for improving lymphatic uptake, bioavailability, and solubility of therapeutic compounds” (THE REGENTS OF THE UNIVERSITY OF MICHIGAN, priority 2017, dated 2022).
Where two headings read alike, the source gives them in different places.

Experiments:
[1] = Tissue concentration partitioning (plasma, mesenteric lymph node, fat) after single oral dose in Maisine, LC-MS/MS; type: in vivo; settings: mice, single oral 10 mg in Maisine
Text: Inhibitor compounds were synthesized to discover the underlying parameters needed in the development of chemical modifiers compatible with attachment to drug molecules to provide a drug having the physiochemical characteristics needed for uptake into the lymphatic system. […] This excipient vehicle contains long chain fatty acids and is used for hydrophobic compound solubilization.
Results were quantified using LC-MS/MS for plasma, mesenteric lymph node (LN) and mesenteric fat tissues.

pERK1/2 and pAKT = assay: Immunoblot of treated A375 melanoma cells (FIG. 5A); type: cell-based, human; settings: 1 h, 20 μM
Description: (§1) ADME (absorption, distribution, metabolism, and excretion) studies of ST-168 have shown that ST-168 is bioavailable following administration in mice.
In FIG. 5A, a two-dimensional assessment of ST-162 and ST-168. […] In FIG. 5B, assessment of dead cells in 3D melanoma spheroids post-treatment with ST-162 and ST-168. A375 melanoma spheroids were treated for 72 h with 20 μM each of ST-162 or ST-168 before staining with Calcein AM and ethidium homodimer-1 for fluorescent microscopy (live/dead viability assay, Molecular Probes). Green fluorescence indicates live cells, and red fluorescence indicates dead cells. Images were obtained with an Olympus IX70 fluorescent microscope using the SPOT advance program. In FIG. 5C tumor growth inhibition by ST-162 and ST-168 in a melanoma xenograft model. Tumor implantation consisted of inoculation of 5×10^6 A375 cells suspended in 100 μL of media into the flank of nude mice. Treatment was initiated once tumors reached >100 mm^3. […] Changes in tumor growth of A375 xenografts were assessed by conducting MRI imaging twice per week. Tumor volume changes between ST-162 and ST-168 treatment were determined to be statistically significant (p<0.05) using an unpaired Student's t test at the last time point. […]

A375 xenografts = assay: Tumor growth inhibition in melanoma xenograft model (FIG. 5C); type: in vivo, nude mice; settings: 400 mg/kg oral once daily, initial 30 days
Description: as §1
In FIG. 5A, a two-dimensional assessment of ST-162 and ST-168. […] In FIG. 5B, assessment of dead cells in 3D melanoma spheroids post-treatment with ST-162 and ST-168. A375 melanoma spheroids were treated for 72 h with 20 μM each of ST-162 or ST-168 before staining with Calcein AM and ethidium homodimer-1 for fluorescent microscopy (live/dead viability assay, Molecular Probes). Green fluorescence indicates live cells, and red fluorescence indicates dead cells. Images were obtained with an Olympus IX70 fluorescent microscope using the SPOT advance program. In FIG. 5C tumor growth inhibition by ST-162 and ST-168 in a melanoma xenograft model. Tumor implantation consisted of inoculation of 5×10^6 A375 cells suspended in 100 μL of media into the flank of nude mice. Treatment was initiated once tumors reached >100 mm^3. Mice were randomized into two treatment groups and treated once daily with either vehicle (200 μL of OraPlus) or 400 mg/kg each of ST-162 or ST-168 by oral gavage until sacrifice (42 days). Changes in tumor growth of A375 xenografts were assessed by conducting MRI imaging twice per week. Tumor volume changes between ST-162 and ST-168 treatment were determined to be statistically significant (p<0.05) using an unpaired Student's t test at the last time point. Experimental design: n=4-6 tumors/treatment group.

PI3Kδ = PI3Kδ (Homo sapiens, UniProt O00329); assay: In vitro inhibition of PI3Kδ; type: biochemical
PI3Kα = PI3Kα (Homo sapiens, UniProt P42336); assay: In vitro inhibition of PI3Kα; type: biochemical
PI3Kβ = PI3Kβ (Homo sapiens, UniProt P42338); assay: In vitro inhibition of PI3Kβ; type: biochemical; settings: Table 14; read-out: IC50 (nM) PI3Kβ
PI3Kγ = PI3Kγ (Homo sapiens, UniProt P48736); assay: In vitro inhibition of PI3Kγ; type: biochemical; settings: Table 14; read-out: IC50 (nM) PI3Kγ
[2] = test system: TGFα-transgenic mouse model of idiopathic pulmonary fibrosis (IPF); assay: Dox-inducible TGFα-transgenic mouse model of idiopathic pulmonary fibrosis; type: in vivo, mice; settings: 400 mg/kg PO, 3 week follow up CT scan
Description: Treatment of inflammatory-mediated fibrotic diseases were also evaluated using a doxycycline (Dox)-inducible transforming growth factor-α (TGFα)-transgenic mouse model of idiopathic pulmonary fibrosis (IPF) expressing lung-epithelial specific TGFα following Dox administration. […] Weekly lung micro-CT exams were used for assessment of fibrotic burden. Nintenadib (n=5) (100 mg/kg) was also evaluated for comparison. Lung tissue was examined microscopy in a subset of animals at the conclusion of the study.

[3] = Mesenteric lymph duct cannulation rat model, lymphatic transport (FIG. 8); type: in vivo; settings: 50 mg/kg intraduodenal, pretreatment with cycloheximide
Text: Evaluation of compound mechanism for lymphatic uptake was also undertaken.

MEK1 = MEK1 (Homo sapiens, UniProt Q02750); assay: In vitro inhibition of MEK1; type: biochemical
[4] = Table 14, read-out: IC50 (nM) PI3Kδ
[5] = Table 14, read-out: IC50 (nM) PI3Kα

PI3Kδ, sequence (O00329 whole entry, species assumed): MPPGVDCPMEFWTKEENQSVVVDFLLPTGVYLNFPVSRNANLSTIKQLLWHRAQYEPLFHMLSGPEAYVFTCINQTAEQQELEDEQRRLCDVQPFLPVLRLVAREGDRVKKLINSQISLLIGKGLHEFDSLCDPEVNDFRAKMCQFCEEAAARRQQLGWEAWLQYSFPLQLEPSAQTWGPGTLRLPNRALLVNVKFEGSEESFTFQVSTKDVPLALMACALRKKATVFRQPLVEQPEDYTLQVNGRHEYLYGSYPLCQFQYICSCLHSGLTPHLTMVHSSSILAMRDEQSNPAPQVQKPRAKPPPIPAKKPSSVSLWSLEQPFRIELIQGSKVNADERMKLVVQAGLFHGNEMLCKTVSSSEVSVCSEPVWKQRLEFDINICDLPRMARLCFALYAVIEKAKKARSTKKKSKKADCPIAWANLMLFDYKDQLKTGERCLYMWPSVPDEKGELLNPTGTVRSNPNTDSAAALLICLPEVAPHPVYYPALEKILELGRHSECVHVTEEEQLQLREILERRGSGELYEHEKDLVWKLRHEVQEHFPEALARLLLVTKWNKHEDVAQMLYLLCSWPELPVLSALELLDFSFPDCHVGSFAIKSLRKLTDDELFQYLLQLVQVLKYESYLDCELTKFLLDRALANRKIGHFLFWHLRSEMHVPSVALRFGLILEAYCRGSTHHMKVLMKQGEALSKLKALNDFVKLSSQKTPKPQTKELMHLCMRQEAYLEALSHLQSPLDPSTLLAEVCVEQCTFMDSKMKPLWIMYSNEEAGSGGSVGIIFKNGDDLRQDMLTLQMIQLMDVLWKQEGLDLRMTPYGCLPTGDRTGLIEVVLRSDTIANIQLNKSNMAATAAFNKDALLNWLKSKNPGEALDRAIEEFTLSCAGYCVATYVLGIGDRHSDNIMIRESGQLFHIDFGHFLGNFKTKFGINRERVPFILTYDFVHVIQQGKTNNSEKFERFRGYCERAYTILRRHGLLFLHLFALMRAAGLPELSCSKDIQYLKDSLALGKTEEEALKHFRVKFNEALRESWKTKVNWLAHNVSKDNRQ
PI3Kδ, sequence (P27986 whole entry partner, species assumed): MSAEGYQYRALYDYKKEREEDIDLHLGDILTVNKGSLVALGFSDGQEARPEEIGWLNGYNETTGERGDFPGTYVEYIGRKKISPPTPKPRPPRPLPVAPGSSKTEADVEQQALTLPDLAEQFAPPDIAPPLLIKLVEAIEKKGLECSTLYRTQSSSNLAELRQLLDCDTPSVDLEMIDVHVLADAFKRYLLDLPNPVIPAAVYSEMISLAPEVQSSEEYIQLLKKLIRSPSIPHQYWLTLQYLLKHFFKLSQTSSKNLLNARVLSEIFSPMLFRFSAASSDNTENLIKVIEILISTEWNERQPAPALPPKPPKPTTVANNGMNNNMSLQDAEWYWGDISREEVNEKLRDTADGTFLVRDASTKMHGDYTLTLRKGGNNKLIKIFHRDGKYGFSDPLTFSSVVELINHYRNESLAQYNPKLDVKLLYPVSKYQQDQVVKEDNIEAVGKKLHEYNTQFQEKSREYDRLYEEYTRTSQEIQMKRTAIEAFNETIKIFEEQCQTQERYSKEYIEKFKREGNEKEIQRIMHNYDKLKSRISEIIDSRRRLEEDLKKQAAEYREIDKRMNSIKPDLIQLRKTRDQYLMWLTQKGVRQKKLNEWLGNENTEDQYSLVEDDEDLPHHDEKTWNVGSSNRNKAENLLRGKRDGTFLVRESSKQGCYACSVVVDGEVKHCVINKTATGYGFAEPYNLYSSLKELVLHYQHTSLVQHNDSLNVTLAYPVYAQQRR
PI3Kα, sequence (P42336 whole entry, species assumed): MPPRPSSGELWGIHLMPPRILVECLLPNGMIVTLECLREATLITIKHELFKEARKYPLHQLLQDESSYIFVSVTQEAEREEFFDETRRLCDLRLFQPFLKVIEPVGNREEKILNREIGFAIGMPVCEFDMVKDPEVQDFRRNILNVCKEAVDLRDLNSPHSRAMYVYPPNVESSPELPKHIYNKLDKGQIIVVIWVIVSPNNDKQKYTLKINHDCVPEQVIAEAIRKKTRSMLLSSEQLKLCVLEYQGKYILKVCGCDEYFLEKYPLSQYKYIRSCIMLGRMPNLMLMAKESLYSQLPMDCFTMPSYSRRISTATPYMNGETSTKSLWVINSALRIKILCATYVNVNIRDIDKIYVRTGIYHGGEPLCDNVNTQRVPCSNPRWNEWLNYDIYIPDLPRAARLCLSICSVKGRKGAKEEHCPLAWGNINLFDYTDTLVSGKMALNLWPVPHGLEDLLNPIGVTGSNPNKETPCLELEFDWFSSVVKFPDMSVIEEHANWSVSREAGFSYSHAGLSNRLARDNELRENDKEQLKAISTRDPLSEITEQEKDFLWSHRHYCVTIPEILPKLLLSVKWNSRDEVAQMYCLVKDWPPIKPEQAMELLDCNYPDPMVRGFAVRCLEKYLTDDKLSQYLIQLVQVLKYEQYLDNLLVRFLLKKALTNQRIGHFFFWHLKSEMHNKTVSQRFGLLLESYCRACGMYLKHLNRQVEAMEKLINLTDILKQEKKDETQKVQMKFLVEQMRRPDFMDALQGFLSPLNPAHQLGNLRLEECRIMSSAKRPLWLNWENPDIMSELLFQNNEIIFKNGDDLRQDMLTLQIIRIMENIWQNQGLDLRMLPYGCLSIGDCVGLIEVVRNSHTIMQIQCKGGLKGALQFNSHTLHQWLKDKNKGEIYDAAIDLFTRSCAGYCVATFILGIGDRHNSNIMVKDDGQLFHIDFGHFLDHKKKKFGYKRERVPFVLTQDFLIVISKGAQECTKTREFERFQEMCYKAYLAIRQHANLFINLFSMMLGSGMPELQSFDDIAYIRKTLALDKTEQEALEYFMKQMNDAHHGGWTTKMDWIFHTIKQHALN
PI3Kα, sequence (P27986 whole entry partner, species assumed): as the sequence (P27986 whole entry partner, species assumed) above
PI3Kβ, sequence (P42338 whole entry, species assumed): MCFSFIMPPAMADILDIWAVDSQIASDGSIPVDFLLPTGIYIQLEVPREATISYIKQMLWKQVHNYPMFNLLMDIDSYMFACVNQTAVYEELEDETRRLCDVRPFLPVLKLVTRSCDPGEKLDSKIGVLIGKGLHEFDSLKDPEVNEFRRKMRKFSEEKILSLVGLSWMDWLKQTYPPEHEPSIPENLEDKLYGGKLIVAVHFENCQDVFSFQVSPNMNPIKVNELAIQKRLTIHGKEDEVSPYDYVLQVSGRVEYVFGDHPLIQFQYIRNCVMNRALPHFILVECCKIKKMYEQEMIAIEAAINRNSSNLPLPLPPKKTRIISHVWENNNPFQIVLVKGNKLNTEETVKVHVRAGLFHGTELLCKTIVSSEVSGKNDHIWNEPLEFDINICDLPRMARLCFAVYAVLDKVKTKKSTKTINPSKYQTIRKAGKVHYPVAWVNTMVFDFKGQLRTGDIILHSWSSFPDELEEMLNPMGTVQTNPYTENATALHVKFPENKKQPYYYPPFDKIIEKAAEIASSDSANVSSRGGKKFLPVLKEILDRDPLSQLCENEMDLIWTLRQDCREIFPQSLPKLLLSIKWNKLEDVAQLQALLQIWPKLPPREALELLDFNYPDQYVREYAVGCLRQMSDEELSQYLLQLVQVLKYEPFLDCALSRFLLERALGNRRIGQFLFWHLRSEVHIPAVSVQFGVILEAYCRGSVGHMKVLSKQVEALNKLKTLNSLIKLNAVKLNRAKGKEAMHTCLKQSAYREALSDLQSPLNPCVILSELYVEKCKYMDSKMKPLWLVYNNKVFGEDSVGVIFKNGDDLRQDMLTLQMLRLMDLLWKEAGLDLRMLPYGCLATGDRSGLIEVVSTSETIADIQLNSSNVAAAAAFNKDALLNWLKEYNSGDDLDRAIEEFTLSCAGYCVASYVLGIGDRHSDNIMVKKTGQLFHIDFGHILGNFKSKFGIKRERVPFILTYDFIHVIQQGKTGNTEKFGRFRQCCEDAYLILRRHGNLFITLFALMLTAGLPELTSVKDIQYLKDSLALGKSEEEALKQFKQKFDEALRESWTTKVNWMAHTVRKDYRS
PI3Kβ, sequence (P27986 whole entry partner, species assumed): as the sequence (P27986 whole entry partner, species assumed) above
PI3Kγ, sequence (P48736 whole entry, species assumed): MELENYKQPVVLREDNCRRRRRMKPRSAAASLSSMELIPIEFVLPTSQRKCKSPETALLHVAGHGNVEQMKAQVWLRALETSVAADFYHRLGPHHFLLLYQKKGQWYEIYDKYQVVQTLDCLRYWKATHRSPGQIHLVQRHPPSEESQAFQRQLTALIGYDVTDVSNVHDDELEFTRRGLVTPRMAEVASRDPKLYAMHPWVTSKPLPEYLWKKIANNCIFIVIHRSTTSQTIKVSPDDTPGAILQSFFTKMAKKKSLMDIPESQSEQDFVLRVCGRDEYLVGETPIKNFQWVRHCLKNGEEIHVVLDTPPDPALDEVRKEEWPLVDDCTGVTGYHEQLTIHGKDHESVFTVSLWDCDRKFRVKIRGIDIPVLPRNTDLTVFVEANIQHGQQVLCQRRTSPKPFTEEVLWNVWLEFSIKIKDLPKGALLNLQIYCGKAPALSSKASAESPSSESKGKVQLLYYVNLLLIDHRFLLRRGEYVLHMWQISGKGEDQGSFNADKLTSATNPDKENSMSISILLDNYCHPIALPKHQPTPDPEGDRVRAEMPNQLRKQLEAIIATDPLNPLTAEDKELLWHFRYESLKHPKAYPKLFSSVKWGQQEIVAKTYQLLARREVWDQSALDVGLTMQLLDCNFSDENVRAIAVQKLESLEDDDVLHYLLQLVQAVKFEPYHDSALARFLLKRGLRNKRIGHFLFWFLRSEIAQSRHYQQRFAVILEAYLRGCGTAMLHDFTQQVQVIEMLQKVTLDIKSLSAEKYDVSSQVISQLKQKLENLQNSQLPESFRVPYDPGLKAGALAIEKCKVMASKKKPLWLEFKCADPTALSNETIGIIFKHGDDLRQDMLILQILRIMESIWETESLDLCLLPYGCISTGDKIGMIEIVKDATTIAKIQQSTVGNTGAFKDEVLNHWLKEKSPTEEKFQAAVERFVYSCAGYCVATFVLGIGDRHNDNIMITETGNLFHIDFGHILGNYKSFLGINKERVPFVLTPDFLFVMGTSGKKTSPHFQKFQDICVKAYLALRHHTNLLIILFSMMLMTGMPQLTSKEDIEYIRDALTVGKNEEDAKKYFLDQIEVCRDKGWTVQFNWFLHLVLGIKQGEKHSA

Question: Which “concentrations in tissues tested, compared to Compound 1” value ([1]; plasma, mesenteric lymph node, fat) does the source give for O=C(NCCCCCCCCCCCNC(=O)c1ccccc1)c1ccccc1 [Compound 2] here?
Answer: much lower concentrations in all tissues tested

Question: What about the Kp ([1]; mouse, mesenteric lymph node / plasma, between time points 0.5, 2, and 4 hours, read-out: lymph/plasma ratios) of the same compound?
Answer: 3 to 5

Question: What does the source list for O=C(NOCCOCCOCCOCCN1CCN(c2nc(N3CCOCC3)nc(-n3c(C(F)F)nc4ccccc43)n2)CC1)c1ccc(F)c(F)c1Nc1ccc(I)cc1F [ST-162]?
Answer: down regulation of pERK1/2 and pAKT in cells (pERK1/2 and pAKT): down regulate; tumor growth (A375 xenografts): tumor stasis; IC50 (PI3Kδ; Table 10B, inhibitory activity, unit inferred, read-out: PI3Kδ): 942 ± 120 nM; IC50 (PI3Kα; Table 10B, inhibitory activity, unit inferred, read-out: PI3Kα): 191 ± 64 nM

Question: Which IC50 (PI3Kβ) does the source give for OCCN(CCO)c1nc(N2CCOCC2)nc(-n2c(C(F)F)nc3ccccc32)n1 [ST-5-32] here?
Answer: 74 ± 5.7 nM

Question: What about the IC50 (PI3Kδ; [4]) of the same compound?
Answer: 9.9 ± 0.4 nM

Question: What about the IC50 (PI3Kα; [5]) of the same compound?
Answer: 3.74 ± 1 nM

Question: What about the IC50 (PI3Kγ) of the same compound?
Answer: 14.6 ± 1.4 nM

Question: Which “reversal of lung fibroproliferative disease and pleural thickness (CT)” value [2] does the source give for O=C(NOCCOCCOCCOCCC(=O)N1CCN(c2cnc3ccc(-c4cnc(Cl)c(NS(=O)(=O)c5ccc(F)cc5)c4)cc3n2)CC1)c1ccc(F)c(F)c1Nc1ccc(I)cc1F [ST-182] here?
Answer: strong activity for reversal

Question: What about the “transport into the lymphatics after cycloheximide pretreatment” value [3] of the same compound?
Answer: significantly reduced

Question: Which results are given for NOCCOCCOCCOCCNc1nc(N2CCOCC2)nc(-n2c(C(F)F)nc3ccccc32)n1 [ST-5-50]?
Answer: IC50 (PI3Kβ): 1870 ± 245 nM; IC50 (PI3Kδ; [4]): 12.6 ± 1 nM; IC50 (PI3Kα; [5]): 89.3 ± 9.5 nM; IC50 (PI3Kγ): 502 ± 20 nM

Question: Which results are given for O=C(NOCCOCCOCCOCCN(CCO)c1nc(N2CCOCC2)nc(-n2c(C(F)F)nc3ccccc32)n1)c1ccc(F)c(F)c1Nc1ccc(I)cc1F [ST-5-47]?
Answer: IC50 (PI3Kβ): 3880 ± 725 nM; IC50 (PI3Kδ; [4]): 137 ± 7 nM; IC50 (MEK1): 352 ± 2 nM; IC50 (PI3Kα; [5]): 107 ± 21 nM; IC50 (PI3Kγ): 2570 ± 364 nM

Question: With NOCCOCCOCCOCCN(CCO)c1nc(N2CCOCC2)nc(-n2c(C(F)F)nc3ccccc32)n1 [ST-5-46] as the compound, how does the IC50 (PI3Kβ) read?
Answer: 1080 ± 143 nM

Question: And the IC50 (PI3Kδ; [4])?
Answer: 8.6 ± 1.2 nM

Question: What about the IC50 (PI3Kα; [5]) of the same compound?
Answer: 10.9 ± 0.7 nM

Question: What about the IC50 (PI3Kγ) of the same compound?
Answer: 137 ± 21 nM

Question: For CC(=O)N(C)CCNc1nc(N2CCOCC2)nc(-n2c(C(F)F)nc3ccccc32)n1 [ST-5-31], which IC50 (PI3Kβ) is on record?
Answer: 404 ± 63 nM

Question: What about the IC50 (PI3Kδ; [4]) of the same compound?
Answer: 11.7 ± 2.2 nM

Question: And the IC50 (PI3Kα; [5])?
Answer: 10.3 ± 1 nM

Question: What about the IC50 (PI3Kγ) of the same compound?
Answer: 55.2 ± 11.5 nM

Question: With O=C(O)CCOCCOCCOCCONC(=O)c1ccc(F)c(F)c1Nc1ccc(I)cc1F [MV6-8] as the compound, how does the IC50 (MEK1) read?
Answer: 72.3 ± 1.9 nM

Question: Which IC50 (PI3Kβ) does the source give for COCCN(CCO)c1nc(N2CCOCC2)nc(-n2c(C(F)F)nc3ccccc32)n1 [ST-6-01] here?
Answer: 136 ± 6.4 nM

Question: And the IC50 (PI3Kδ; [4])?
Answer: 8.9 ± 0.5 nM

Question: What about the IC50 (PI3Kα; [5]) of the same compound?
Answer: 5.1 ± 1.1 nM

Question: And the IC50 (PI3Kγ)?
Answer: 30.7 ± 0.9 nM
